Assay results taken from patent US20240293413A1, “COMPOUND AND METHOD FOR TREATING CHEMOTHERAPY-RELATED GASTROINTESTINAL SIDE EFFECTS” (ONQUALITY PHARMACEUTICALS CHINA LTD., priority 2021, published 2024).

How the values were obtained:
Format in all cases: in vivo
[1] = tested on: Chemotherapeutic agent-caused diarrhea models of Balb/c mice; assay: Examples 1-229 (Table 3): oral CDK inhibitor, relief of diarrhea caused by a chemotherapeutic agent;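 also: percent of treated mice whose diarrhea grade fell below chemotherapy-group average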
Source text: Construction of mouse animal models: Chemotherapeutic agent-caused diarrhea models of Balb/c mice were constructed according to the administration mode and frequency of the chemotherapeutic agent as shown in Table 3.
Balb/c mice were fed for 1 week, and then divided into groups. The experiment was divided into a control group, a chemotherapeutic agent group, and a CDK inhibitor group, each of which comprised 10 mice, to perform the administration experiment, for which the administration dosage, mode, time and frequency were shown in Table 3. The control group: being intragastrically administered with the same solvent as that used in the CDK inhibitor group (the time was shown in Table 3), and then being injected/intragastrically administered with the same solvent as that used in the chemotherapeutic agent group (the administration mode was shown in Table 3): the chemotherapeutic agent group: being intragastrically administered with the same solvent as that used in the CDK inhibitor group (the time was shown in Table 3), and then being injected/intragastrically administered with the chemotherapeutic agent (the type, administration mode and dosage were shown in Table 3); the CDK inhibitor group: being intragastrically administered with the CDK inhibitor (the time was shown in Table 3), and then being administered with the chemotherapeutic agent (the mode and dosage were shown in Table 3).
(§1) The diarrhea grading of mice was observed and recorded every day.

[2] = tested on: Chemotherapeutic agent-caused constipation models of Balb/c mice; assay: Examples 272-342 (Table 5): oral CDK inhibitor, relief of constipation caused by a chemotherapeutic agent; details: cycle 8 days;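 also: percent of treated mice relieved versus chemotherapy group by feces reduction rate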
Source text: Construction of mouse animal models: Chemotherapeutic agent-caused constipation models of Balb/c mice were constructed according to the administration mode and frequency of the chemotherapeutic agent as shown in Table 5.
Balb/c mice were fed for 1 week, and then divided into groups. The experiment was divided into a control group, a chemotherapeutic agent group, and a CDK inhibitor group, each of which comprised 10 mice, to perform the administration experiment, for which the administration dosage, mode, time and frequency were shown in Table 5. The control group: being intragastrically administered with the same solvent as that used in the CDK inhibitor group (the time was shown in Table 5), and then being injected/intragastrically administered with the same solvent as that used in the chemotherapeutic agent group (the administration mode was shown in Table 5): the chemotherapeutic agent group: being intragastrically administered with the same solvent as that used in the CDK inhibitor group (the time was shown in […]), and then being injected/intragastrically administered with the chemotherapeutic agent (the type, administration mode and dosage were shown in Table 5): the CDK inhibitor group: being intragastrically administered with the CDK inhibitor (the time was shown in Table 5), and then being administered with the chemotherapeutic agent (the mode and dosage were shown in Table 5).
Feces reduction rate (%)=(the control group−the chemotherapeutic agent group or the CDK inhibitor group)/the control group*100%
The feces amount of mice within 3 hours was observed and recorded every day.

[3] = tested on: diarrhea caused by a chemotherapeutic agent in Balb/c mice; assay: Examples 343-381 (Table 6): oral versus intravenous CDK inhibitor, relief of diarrhea caused by a chemotherapeutic agent; details: for Relative remission rate: Example 369, Topotecan (TP) intramuscular injection 10 mg/kg single, 12 h before, cycle 10 days;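 as to Relative remission rate: percent of treated mice whose diarrhea grade fell below chemotherapy-group average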
Source text: Balb/c mice were fed for 1 week, and then divided into groups. The experiment was divided into a control group, a chemotherapeutic agent group, and an oral administration group of a CDK inhibitor, and an intravenous injection group of a CDK inhibitor, each of which comprised 10 mice, to perform the administration experiment, for which the administration dosage, mode, time and frequency were shown in Table 6. The control group: being injected/intragastrically administered with the same solvent as that used in the CDK inhibitor group (the time was shown in Table 6), and then being injected/intragastrically administered with the same solvent as that used in the chemotherapeutic agent group (the administration mode was shown in Table 6): the chemotherapeutic agent group: being injected/intragastrically administered with the same solvent as that used in the CDK inhibitor group (the time was shown in Table 6), and then being injected/intragastrically administered with the chemotherapeutic agent (the type, administration mode and dosage were shown in Table 6): the oral administration group of the CDK inhibitor: being intragastrically administered with the CDK inhibitor (the time was shown in Table 6), and then being administered with the chemotherapeutic agent (the mode and dosage were shown in Table 6): the intravenous injection group of the CDK inhibitor: being injected with the CDK inhibitor through tail vein (the time was shown in Table 6), and then being administered with the chemotherapeutic agent (the mode and dosage were shown in Table 6).
as §1

SMILES: CNC(=O)c1nn(C)c2c1C(C)(C)Cc1cnc(Nc3ccc(N4CCN(C)CC4)cc3)nc1-2 [Milciclib]
- Relative remission rate (%) ([1]; Example 194, Gemcitabine 60 mg/kg and paclitaxel 10 mg/kg intraperitoneal injection single, CDK inhibitor oral 60 mg/kg single, 2 h before, 8 days): 40%
- Relative remission rate ([2]; Example 315, Docetaxel (DTX) intraperitoneal injection 15 mg/kg single, CDK inhibitor oral 60 mg/kg single, 0.5 h before): 30%
- Relative remission rate ([2]; Example 316, Docetaxel (DTX) intraperitoneal injection 15 mg/kg single, CDK inhibitor oral 60 mg/kg single, 4 h before): 20%
- Relative remission rate ([2]; Example 317, Docetaxel (DTX) intraperitoneal injection 15 mg/kg single, CDK inhibitor oral 60 mg/kg single, 8 h before): 20%
- Relative remission rate ([2]; Example 318, Docetaxel (DTX) intraperitoneal injection 15 mg/kg single, CDK inhibitor oral 60 mg/kg single, 12 h before): 30%
- Relative remission rate ([2]; Example 319, Docetaxel (DTX) intraperitoneal injection 15 mg/kg single, CDK inhibitor oral 60 mg/kg single, 24 h before): 10%
- Relative remission rate ([2]; Example 320, Docetaxel (DTX) intraperitoneal injection 15 mg/kg single, CDK inhibitor oral 60 mg/kg single, 48 h before): 0%

SMILES: CN[C@@H]1C[C@H]2O[C@@](C)([C@@H]1OC)n1c3ccccc3c3c4c(c5c6ccccc6n2c5c31)C(=O)N[C@H]4O [KRX-0601]
- Relative remission rate (%) ([1]; Example 165, Docetaxel (DTX) oral administration 30 mg/kg single, CDK inhibitor oral 250 mg/kg single 3 h before, cycle 8 days): 10%
- Relative remission rate ([3]; CDK inhibitor intravenous injection 250 mg/kg single): 10%
- Relative remission rate ([3]; CDK inhibitor oral 250 mg/kg single): 20%
- relief of diarrhea by oral administration and injection administration ([3]; diarrhea caused by etoposide, etoposide in combination with cisplatin, carboplatin, gemcitabine, gemcitabine in combination with carboplatin, and topotecan, oral administration has the most significant effect): effectively relieve diarrhea
- Relative remission rate ([2]; Example 334, Cytarabine (Ara-C) intramuscular injection 600 mg/kg single, CDK inhibitor oral 40 mg/kg single, 12 h before): 10%

SMILES: CC(=O)c1c(C)c2cnc(Nc3ccc(C4CCN(CCS(C)(=O)=O)CC4)cn3)nc2n(C2CCCC2)c1=O [BEBT-209]
- Relative remission rate (%) ([1]; Example 187, Gemcitabine (GEM) intraperitoneal injection 120 mg/kg single, CDK inhibitor oral 80 mg/kg single, 4 h before, 8 days): 40%
- Relative remission rate (%) ([1]; Example 207, Carboplatin 5 mg/kg and paclitaxel 10 mg/kg intraperitoneal injection single, CDK inhibitor oral 80 mg/kg single, 4 h before, 10 days): 50%

SMILES: CN1CC[C@@H](c2c(O)cc(O)c3c(=O)cc(-c4ccc(C(F)(F)F)cc4Cl)oc23)[C@@H]1CO [Voruciclib]
- Relative remission rate (%) ([1]; Example 76, Oxaliplatin intraperitoneal injection 20 mg/kg single, CDK inhibitor oral 250 mg/kg single 4 h before, cycle 8 days): 70%
- Relative remission rate (%) ([1]; Example 203, Gemcitabine 60 mg/kg and paclitaxel 10 mg/kg intravenous injection single, CDK inhibitor oral 250 mg/kg single, 8 h before, 8 days): 80%

SMILES: CCN1CCN(Cc2ccc(Nc3ncc(F)c(-c4cc(F)c5nc6n(c5c4)C(C)CCC6)n3)nc2)CC1 (stereo not shown) [BPI-16350]
- Relative remission rate (%) ([1]; Example 30, Fluorouracil (5-Fu) intraperitoneal injection 125 mg/kg single, CDK inhibitor oral 150 mg/kg single 6 h before, cycle 10 days): 80%
- Relative remission rate (%) ([1]; Example 71, Oxaliplatin intraperitoneal injection 20 mg/kg single, CDK inhibitor oral 150 mg/kg single 4 h before, cycle 8 days): 40%
- Relative remission rate (%) ([1]; Example 196, Gemcitabine 60 mg/kg and paclitaxel 10 mg/kg intraperitoneal injection single, CDK inhibitor oral 150 mg/kg single, 2 h before, 8 days): 50%

SMILES: COCc1cc(C(=O)Nc2cc([C@H]3CC[C@@H](OC(=O)NC(C)C)C3)[nH]n2)n(C)n1 [PF-07104091]
- Relative remission rate (%) ([1]; Example 161, Docetaxel (DTX) intraperitoneal injection 10 mg/kg single, CDK inhibitor oral 50 mg/kg single 8 h before, cycle 8 days): 40%

SMILES: COc1cc(OC)c(/C=C/S(=O)(=O)Cc2ccc(OC)c(NCC(=O)O)c2)c(OC)c1 [Rigosertib]
- Relative remission rate (%) ([1]; Example 116, Irinotecan (CPT-11) intraperitoneal injection 240 mg/kg single, CDK inhibitor oral 250 mg/kg single 4 h before, cycle 7 days): 20%
- Relative remission rate (%) ([1]; Example 189, Gemcitabine (GEM) intraperitoneal injection 120 mg/kg single, CDK inhibitor oral 250 mg/kg single, 6 h before, 8 days): 30%
- Relative remission rate (%) ([1]; Example 214, Fluorouracil 100 mg/kg and irinotecan 200 mg/kg intravenous injection single, CDK inhibitor oral 250 mg/kg single, 2 h before, 10 days): 20%

SMILES: COCCN1CCN(Cc2ccc(-c3n[nH]c4c3C(=O)c3c(NC(=O)NN5CCOCC5)cccc3-4)cc2)CC1 [RGB-286638]
- Relative remission rate (%) ([1]; Example 124, Irinotecan (CPT-11) intraperitoneal injection 240 mg/kg single, CDK inhibitor oral 100 mg/kg single 12 h before, cycle 7 days): 60%
- Relative remission rate (%) ([1]; Example 130, Irinotecan (CPT-11) intravenous injection 200 mg/kg single, CDK inhibitor oral 100 mg/kg single 8 h before, cycle 7 days): 50%

SMILES: Cc1c(Br)c(Br)c2c3c1nc(N1CCNCC1)n3CCC2 [SEL120]
- Relative remission rate (%) ([1]; Example 75, Oxaliplatin intraperitoneal injection 20 mg/kg single, CDK inhibitor oral 80 mg/kg single 8 h before, cycle 8 days): 40%
- Relative remission rate (%) ([1]; Example 120, Irinotecan (CPT-11) intraperitoneal injection 240 mg/kg single, CDK inhibitor oral 80 mg/kg single 8 h before, cycle 7 days): 40%

SMILES: CC1CCC(n2c3cnccc3c3cnc(Nc4ccc5c(n4)CCN(C(=O)CO)C5)nc32)CC1 (stereo not shown) [FLX-925]
- Relative remission rate (%) ([1]; Example 27, Fluorouracil (5-Fu) intraperitoneal injection 125 mg/kg single, CDK inhibitor oral 75 mg/kg single 4 h before, cycle 10 days): 50%
- Relative remission rate (%) ([1]; Example 69, Oxaliplatin intraperitoneal injection 20 mg/kg single, CDK inhibitor oral 75 mg/kg single 4 h before, cycle 8 days): 60%
- Relative remission rate (%) ([1]; Example 85, Oxaliplatin intravenous injection 17.5 mg/kg single, CDK inhibitor oral 75 mg/kg single 6 h before, cycle 8 days): 60%
- Relative remission rate (%) ([1]; Example 114, Irinotecan (CPT-11) intramuscular injection 250 mg/kg single, CDK inhibitor oral 75 mg/kg single 4 h before, cycle 7 days): 50%

SMILES: CC(=O)Nc1ccc([C@H](C)C(=O)Nc2ncc(C(C)C)s2)cc1 [PHA-690509]
- Relative remission rate (%) ([1]; Example 123, Irinotecan (CPT-11) intraperitoneal injection 240 mg/kg single, CDK inhibitor oral 60 mg/kg single 12 h before, cycle 7 days): 40%

SMILES: CC[C@H](Nc1nc(NCc2cnc(C)cc2C)c2ncn(C(C)C)c2n1)[C@@H](C)O [Fadraciclib]
- Relative remission rate (%) ([1]; Example 122, Irinotecan (CPT-11) intraperitoneal injection 240 mg/kg single, CDK inhibitor oral 80 mg/kg single 8 h before, cycle 7 days): 30%
- Relative remission rate (%) ([1]; Example 159, Docetaxel (DTX) intraperitoneal injection 10 mg/kg single, CDK inhibitor oral 80 mg/kg single 12 h before, cycle 8 days): 20%
